Earlier results, collected in patent publication US10842883B2, “Aqueous oral solutions of steroid hormones and hydroxypropyl-β-cyclodextrin with optimised bioavailability” (ALTERGON S.A., priority 2012, dated 2020).

Details: Gould et al., Food Chem. Toxicol. 43 (2005)

In the case of `CC(O)COC[C@H]1O[C@@H]2O[C@H]3[C@H](O)[C@@H](O)[C@@H](O[C@H]4[C@H](O)[C@@H](O)[C@@H](O[C@H]5[C@H](O)[C@@H](O)[C@@H](O[C@H]6[C@H](O)[C@@H](O)[C@@H](O[C@H]7[C@H](O)[C@@H](O)[C@@H](O[C@H]8[C@H](O)[C@@H](O)[C@@H](O[C@H]1[C@H](O)[C@H]2O)O[C@@H]8COCC(C)O)O[C@@H]7COCC(C)O)O[C@@H]6COCC(C)O)O[C@@H]5COCC(C)O)O[C@@H]4COCC(C)O)O[C@@H]3COCC(C)O` (stereo partly drawn) [hydroxypropyl-β-cyclodextrin], the “fraction absorbed after oral administration” value is given as “about 5%”.
